{"source": "paper PMC5322872", "about": "“ALKBH7 Variant Related to Prostate Cancer Exhibits Altered Substrate Binding” (PLoS Computational Biology, 2017)", "biological_target": "T1, ALKBH7 (Homo sapiens, UniProt Q9BT30)", "T1 sequence (Q9BT30 17-215)": "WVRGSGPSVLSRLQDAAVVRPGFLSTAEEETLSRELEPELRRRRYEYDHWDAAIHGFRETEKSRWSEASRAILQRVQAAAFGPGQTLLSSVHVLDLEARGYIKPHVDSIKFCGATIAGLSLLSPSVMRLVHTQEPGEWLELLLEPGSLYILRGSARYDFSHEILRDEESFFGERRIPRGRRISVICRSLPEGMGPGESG", "assay": "anaerobic difference UV-Vis spectroscopy (MLCT transition at […] nm)", "type": "binding", "settings": "0.3 mM protein, 100 uM Fe(II), α-kg 2 mM in Fig 4 legend but 0.2 mM in Methods", "data": [{"compound": "O=C(O)CCC(=O)C(=O)O", "note": "[α-kg]", "values": [{"measurement": "anaerobic difference UV-Vis spectroscopy (MLCT transition at 510 nm)", "value": "The spectrum of WT ALKBH7·Fe(II)·α-kg minus that of ALKBH7·α-kg revealed the typical weak MLCT transitions"}]}]}
